Measured values reported in patent publication US4224329A, “2-Substitute d-trans-5-aryl-2,3,4,4a,5,9b-hexahydro-1H-pyrido[4,3-b]indoles” (Pfizer Inc., priority 1979, dated 1980).
Structures can show the parent of a compound that is named as a salt.

Tests used:
[1] = tested on: Amphetamine Stereotypy; test: Antagonism of Amphetamine Stereotypy in Rats (ED50 for blocking characteristic amphetamine cage movement); assay type: in vivo; settings: s.c., hydrochloride; for ED50, 1 Hr.: 60 min; for ED50, 24 Hrs.: 1440 min
Protocol: The effects of the compounds of the present invention on prominent amphetamine-induced symptoms were studied in rats by a rating scale modeled after the one reported by Quinton and Halliwell, and Weissman. Groups of five rats were placed in a covered plastic cage measuring approximately 26 cm.×42 cm.×16 cm. […] They were then treated 1, 5 and 24 hrs. later with d-amphetamine sulfate, 5 mg./kg. intraperitoneally (i.p.). […] On the basis of dose-response data after amphetamine it was possible to determine the effective dose of the compound necessary to antagonize or block the characteristic amphetamine behavior of cage movement for fifty percent of the rats tested (ED50). The time of rating chosen coincides with the peak action of amphetamine which is 60-80 min. after treatment with this agent.
Employing the above-described procedure, the following 4a,9b-trans compounds were tested for their ability to block the behavior effects of amphetamine, the results being reported as the ED50 in mg./kg. at the indicated times: [drawing 30]
A. The following results were obtained on the mixture of diastereomers for those compounds wherein R contains a secondary alcohol group and on the single diastereomer of the other 4a, 9b-trans hexahydro-pyrido-indoles.
B. The results of tests in which compounds of the invention reported in Part A, above are compared with the corresponding δ-substituted-5-aryl-1,2,3,4-tetrahydropyrido[4,3-b]indoles of U.S. Pat. No. 4,001,263 are summarized below. For each pair the results obtained on the prior art compound (a) are given first and the results for the compound of the invention (b) are given second. Where indicated the test compound was also administered orally (p.o.) and tests were carried out for 48 hours.
C. […] In each case the compounds are of the formula
The tests were carried out for 72 hours.

[2] = target: dopamine receptors (Rattus norvegicus, UniProt P61169); test: Inhibition of 3H-Spiroperidol Binding to Dopamine Receptors (rat corpus striatum); parameters: species or system rats (Sprague-Dawley CD males); settings: 0.5 nM 3H-spiroperidol, 10 minutes at 37° C.
dopamine receptors, sequence (P61169 whole entry): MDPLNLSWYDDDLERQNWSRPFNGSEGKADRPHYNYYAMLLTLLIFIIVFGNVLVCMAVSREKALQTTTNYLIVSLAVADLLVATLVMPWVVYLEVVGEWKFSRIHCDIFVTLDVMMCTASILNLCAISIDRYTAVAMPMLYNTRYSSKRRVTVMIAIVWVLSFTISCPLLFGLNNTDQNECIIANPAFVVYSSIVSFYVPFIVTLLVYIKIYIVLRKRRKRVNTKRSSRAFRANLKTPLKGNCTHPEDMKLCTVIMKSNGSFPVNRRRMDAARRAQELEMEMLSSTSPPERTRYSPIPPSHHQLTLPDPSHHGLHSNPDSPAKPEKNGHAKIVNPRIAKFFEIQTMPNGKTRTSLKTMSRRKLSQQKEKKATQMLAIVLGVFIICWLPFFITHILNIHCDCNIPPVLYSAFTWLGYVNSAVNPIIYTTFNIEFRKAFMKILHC

[3] = Part C, isomers of Examples 13 and 14
[4] = Part D, enantiomers by synthesis of Example 21

IC50 [2]: 350 nM
Compound: OC(CCCN1CC[C@@H]2[C@@H](C1)c1cc(F)ccc1N2c1ccc(F)cc1)c1ccc(F)cc1 (single isomer, unassigned) [δ, trans 8-fluoro-5-(p-fluorophenyl)-2-[4-hydroxy-4(p-fluorophenyl)butyl]-2,3,4,4a,5,9b-hexahydro-1H-pyrido[4,3-b]indole hydrochloride]
ED50, 1 Hr. [1, 3]: > 1000 micrograms/kilograms
ED50, 1 Hr. [1, 4]: > 10 mg/kg
ED50, 5 Hrs. ([1]; 5 hrs, Part D, enantiomers by synthesis of Example 21, 300 min): 5.7 mg/kg
ED50, 24 Hrs. [1, 3]: 320-1000 micrograms/kilograms
ED50, 24 Hrs. [1, 4]: > 10 mg/kg
ED50, 48 Hrs. ([1]; 48 hrs, Part D, enantiomers by synthesis of Example 21, 2880 min): > 10 mg/kg
ED50, 72 Hrs. ([1]; 72 hrs, Part D, enantiomers by synthesis of Example 21, 4320 min): > 10 mg/kg
